Compound in one assay: C=CC(=O)Nc1cc(-n2c(=O)ccc3cnc4ccc(-c5ccc(NS(C)(=O)=O)cc5)cc4c32)ccc1C [BMX-IN-1]
Briefly: relative viability (nuclei count vs DMSO), 5 days (fraction); higher = more cells survive. Summed up: (§1)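 Viability was read as treated-well nuclei divided by vehicle-well nuclei, using the median across plates. Lung cancer cell lines in 1536-well plates were kept overnight at 37 °C, pinned with five √10-spaced library-drug doses, and after 5 days were Hoechst-stained, imaged at 4× and counted in MetaXpress. Plates passed only with control CV below 25% and at least one doubling.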

Compound in another assay: C=CC(=O)N1CCC[C@@H](n2nc(-c3ccc(Oc4ccccc4)cc3)c3c(N)ncnc32)C1 [Ibrutinib]
Described as above. Summed up:
as §1

Take NCI-H1395: the relative viability with BMX-IN-1 (0.02 µM) stood at 1.01; in the assay with BMX-IN-1 (0.2 µM), 0.951; with BMX-IN-1 (0.6325 µM) it was 0.97; with BMX-IN-1 (2 µM), 0.892; in the assay with Ibrutinib (0.005 µM), 0.763; with Ibrutinib (0.01581 µM) it was 1.04. The relative viability was 0.855 in the assay with Ibrutinib (0.05 µM), 0.713 with Ibrutinib (0.1581 µM) and 0.957 in the assay with Ibrutinib (0.5 µM).
For EKVX, the relative viability worked out at 1.02 with BMX-IN-1 (0.02 µM); 0.944 with BMX-IN-1 (0.2 µM); 1.02 with BMX-IN-1 (0.6325 µM); 1.01 with BMX-IN-1 (2 µM); 0.955 with Ibrutinib (0.005 µM); 0.95 with Ibrutinib (0.01581 µM). Also, the relative viability in the assay with Ibrutinib (0.05 µM) stood at 0.901; with Ibrutinib (0.1581 µM) it was 0.849; in the assay with Ibrutinib (0.5 µM), 0.584.
Take NCI-H23: the relative viability turned out to be 0.963 in the assay with BMX-IN-1 (0.02 µM); 1.1 with BMX-IN-1 (0.2 µM); 1.16 with BMX-IN-1 (0.6325 µM); 1.09 with BMX-IN-1 (2 µM); 0.829 with Ibrutinib (0.005 µM); 0.897 with Ibrutinib (0.01581 µM). For the same cell line, the relative viability in the assay with Ibrutinib (0.05 µM) is 0.912; with Ibrutinib (0.1581 µM) it was 0.761; with Ibrutinib (0.5 µM), 0.977.
NCI-H1792: the relative viability in the assay with BMX-IN-1 (0.02 µM) amounted to 1.03; with BMX-IN-1 (0.2 µM), 1.2; with BMX-IN-1 (0.6325 µM) it was 1.5; with BMX-IN-1 (2 µM) it was 0.991; with Ibrutinib (0.01581 µM), 1.06; with Ibrutinib (0.05 µM) it was 0.925. Also, the relative viability with Ibrutinib (0.1581 µM) is 0.567; with Ibrutinib (0.5 µM) it was 0.762.
Turning to NCI-H3122, the relative viability was 1.07 in the assay with BMX-IN-1 (0.02 µM); 1.06 with BMX-IN-1 (0.2 µM); 1.04 in the assay with BMX-IN-1 (0.6325 µM); 1.04 in the assay with BMX-IN-1 (2 µM); 1.05 with Ibrutinib (0.005 µM); 0.989 with Ibrutinib (0.01581 µM). The relative viability with Ibrutinib (0.05 µM) is 0.996; with Ibrutinib (0.1581 µM), 0.895; with Ibrutinib (0.5 µM) it was 1.

For the origin of these results see the supplement of paper PMC10307832.
